Laboratory results reported in ChEMBL document CHEMBL1201862, “PubChem BioAssay data set” (2004).
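Test compounds were applied to cells in 96-well plates for 48 hours at 5 doses. GI50 = concentration required for 50% inhibition of growth.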 Active and inactive are the calls of the source. Cut-off read from the data, not from the text of the source: active = GI50 up to about 1.1 µM and inactive = higher.

Assays:
Assay in all cases: NCI anticancer screen, dose series, 48 h
[1] = system: SF-539
[2] = system: LOX IMVI
[3] = system: OVCAR-3
[4] = system: RXF 393
[5] = system: MCF7
[6] = system: MDA-MB-435
[7] = system: NCI/ADR-RES
[8] = system: HL-60
[9] = system: HT-29
[10] = system: MDA-MB-231
[11] = system: EKVX
[12] = system: OVCAR-4
[13] = system: 786-0
[14] = system: CCRF-CEM
[15] = system: HCT-15
[16] = system: K562
[17] = system: SNB-19
[18] = system: NCI-H460
[19] = system: A498
[20] = system: SF-295

Row | SMILES | GI50 [1] | GI50 [2] | GI50 [3] | GI50 [4] | GI50 [5] | GI50 [6] | GI50 [7] | GI50 [8] | GI50 [9] | GI50 [10] | GI50 [11] | GI50 [12] | GI50 [13] | GI50 [14] | GI50 [15] [µM] | GI50 [16] | GI50 [17] | GI50 [18] | GI50 [19] | GI50 [20]
1 | CSC12c3cc(C)n(-c4ccc(I)cc4)c3CC(C)(C)CN1C(=O)C2Oc1ccccc1 (stereo not given) | > 100 µM (inactive) | > 100 µM (inactive) | > 100 µM (inactive) | > 100 µM (inactive) | 14.1 µM (inactive) | > 100 µM (inactive) | > 100 µM (inactive) | 93.3 µM (inactive) | > 100 µM (inactive) | > 100 µM (inactive) | > 67 µM (inactive) | > 100 µM (inactive) | > 100 µM (inactive) | > 100 µM (inactive) | > 100 | > 87.1 µM (inactive) | > 100 µM (inactive) | > 100 µM (inactive) | 97.5 µM (inactive) | > 100 µM (inactive)
2 | Nc1ccc(C(=O)N2CCC[C@H]2CO)c(N)c1 | > 100 µM (inactive) | > 100 µM (inactive) | > 100 µM (inactive) | > 100 µM (inactive) | > 100 µM (inactive) | > 100 µM (inactive) | > 100 µM (inactive) | > 100 µM (inactive) | > 100 µM (inactive) | > 100 µM (inactive) | > 100 µM (inactive) | > 100 µM (inactive) | > 100 µM (inactive) | > 100 µM (inactive) | > 100 | > 100 µM (inactive) | > 100 µM (inactive) | > 100 µM (inactive) | > 100 µM (inactive) | > 100 µM (inactive)
3 | CC(=O)OCC1OC(n2c(=O)[nH]c(=O)c3sccc32)C(Br)C1OC(C)=O (stereo not given) | > 100 µM (inactive) | > 100 µM (inactive) | > 100 µM (inactive) | > 100 µM (inactive) | > 100 µM (inactive) | > 100 µM (inactive) | > 100 µM (inactive) | > 100 µM (inactive) | > 100 µM (inactive) | > 100 µM (inactive) | > 100 µM (inactive) | > 100 µM (inactive) | > 100 µM (inactive) | > 100 µM (inactive) | > 100 | > 100 µM (inactive) | > 100 µM (inactive) | > 100 µM (inactive) | > 100 µM (inactive) | > 100 µM (inactive)
4 | COc1ccccc1NC(=O)CC(=O)n1nc(C)c(/N=N/c2ccccc2Cl)c1C | 56.1 µM (inactive) | > 100 µM (inactive) | > 100 µM (inactive) | > 100 µM (inactive) | > 100 µM (inactive) | > 100 µM (inactive) | > 100 µM (inactive) | > 95.5 µM (inactive) | > 100 µM (inactive) | > 100 µM (inactive) | > 90.4 µM (inactive) | > 100 µM (inactive) | > 100 µM (inactive) | > 81.3 µM (inactive) | > 100 | > 90.2 µM (inactive) | > 100 µM (inactive) | > 100 µM (inactive) | > 100 µM (inactive) | 83.4 µM (inactive)
5 | CCOC(=O)c1cc2c([nH]1)c(OC(C)=O)cc1c2ccn1Cc1ccccc1 | > 100 µM (inactive) | > 100 µM (inactive) | > 100 µM (inactive) | > 100 µM (inactive) | > 100 µM (inactive) | > 100 µM (inactive) | > 100 µM (inactive) | > 100 µM (inactive) | > 100 µM (inactive) | > 100 µM (inactive) | 99.5 µM (inactive) | > 100 µM (inactive) | > 100 µM (inactive) | > 100 µM (inactive) | > 100 | > 100 µM (inactive) | > 100 µM (inactive) | > 100 µM (inactive) | > 100 µM (inactive) | > 100 µM (inactive)
6 | S=c1[nH]c2c(Cl)c(Cl)c(Cl)c(Cl)c2[nH]1 | 12.1 µM (inactive) | 8.69 µM (inactive) | 26.7 µM (inactive) | 18.1 µM (inactive) | 16.8 µM (inactive) | 17.5 µM (inactive) | 18.5 µM (inactive) | 1.75 µM (inactive) | 24 µM (inactive) | 17.8 µM (inactive) | 11.8 µM (inactive) | 5.94 µM (inactive) | 26.2 µM (inactive) | 1.16 µM (inactive) | 22 | 7.23 µM (inactive) | 27.9 µM (inactive) | 19.4 µM (inactive) | 22.2 µM (inactive) | 17.5 µM (inactive)
